In article PMC9685933, “Tiliroside suppresses triple-negative breast cancer as a multifunctional CAXII inhibitor” (Cancer Cell International, 2022):

Target: T1, CAXII (Homo sapiens, UniProt O43570)
T1 construct: gene CA12
Assay: CAXII esterase activity assay (4-nitrophenol absorbance) in MDA-MB-231 cells; […] in BT-549 cells
Assay type: cell-based

T1 sequence (O43570 25-354): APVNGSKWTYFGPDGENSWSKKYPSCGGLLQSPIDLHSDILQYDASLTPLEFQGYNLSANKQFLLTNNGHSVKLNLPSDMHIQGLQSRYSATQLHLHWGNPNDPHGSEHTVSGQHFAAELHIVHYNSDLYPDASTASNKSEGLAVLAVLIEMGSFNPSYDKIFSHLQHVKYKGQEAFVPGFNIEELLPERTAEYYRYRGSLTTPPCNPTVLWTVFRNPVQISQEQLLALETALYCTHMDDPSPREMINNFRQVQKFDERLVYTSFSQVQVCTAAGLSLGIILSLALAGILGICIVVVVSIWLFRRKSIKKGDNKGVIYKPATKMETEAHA

- IC50: 20.9 ± 5.8 µM
SMILES: O=C(/C=C/c1ccc(O)cc1)OC[C@H]1O[C@@H](Oc2c(-c3ccc(O)cc3)oc3cc(O)cc(O)c3c2=O)[C@H](O)[C@@H](O)[C@@H]1O [TS, Tiliroside]
